Numbered stars: 1 amine (or outer) side, 2 acyl side, 3 side chain; on linkers, the order of the positions; unused ones are H or OH. Square brackets hold non-standard residues; d marks the D form. Side chains are listed from the residue outwards. Peptide text beside a SMILES is read from it. * marks the point of attachment. Decanoyl(10-(4-HOOC-PhO)) = O=C(O)c1ccc(OCCCCCCCCCC(=O)*)cc1; γGlu = O=C(O)[C@H](CCC(=O)[*:2])N[*:1]; εLys = N[C@@H](CCCCN[*:1])C(=O)[*:2]; AEEA = NCCOCCOCC(=O)O; Aib = CC(C)(N)C(=O)O
Legend:
[1] = target: T1, human GLP-1 receptor (Homo sapiens, UniProt P43220); assay: In vitro potency (CRE luciferase; whole cells); assay type: cell-based; parameters: EC50/pM (ratio 1% HSA/0% HSA): unit not given here; conditions: for EC50: BHK cells; for EC50/pM (ratio 1% HSA/0% HSA): ratio of EC50 at 1% HSA to EC50 at 0% HSA
T1 construct: expressed in transfected cells; host or cells: BHK cells, clone FCW467-12A/KZ10-1 (parent line BHKTS13), further transfected with CRE luciferase
Method in brief: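 Reporter: CRE-luciferase in BHK cells stably expressing human GLP-1R, 5×10^3 cells/well; compounds tested in buffer containing 0% or 1% HSA.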

[2] = Pharmacokinetic (PK) study in minipig; conditions: male, Göttingen, in vivo, iv
[3] = Pharmacokinetic (PK) study in rat; conditions: male, Sprague Dawley, in vivo, iv, 6 nmol/kg
Protocol: The purpose of this Example is to investigate half-life in vivo in rat.
In vivo pharmacokinetic studies in rats were performed with the GLP-1 derivatives of a number of the Example compounds, as described in the following.
Male Sprague Dawley rats of same age with a body weight of approximately 400 g were obtained from Taconic (Denmark) and assigned to the treatments by simple randomisation on body weight, approximately 4 rats per group.
The GLP-1 derivatives (approximately 6 nmol/ml) were dissolved in 50 mM sodium phosphate, 145 mM sodium chloride, 0.05% tween 80, pH 7.4. Intravenous injections (1.0 ml/kg) of the compounds were given with a syringe in the tail vein of conscious rats. Blood was sampled from vena sublingualis for 5 days post dosing. Blood samples (200 μl) were collected in EDTA buffer (8 mM) and then centrifuged at 4° C. and 10000 G for 5 minutes. Plasma samples were kept at −20° C. until analyzed for plasma concentration of the respective GLP-1 compound.
The donor beads were coated with streptavidin, while acceptor beads were conjugated with a monoclonal antibody recognising a mid-/C-terminal epitope of the peptide. Another monoclonal antibody, specific for the N-terminus, was biotinylated. The three reactants were combined with the analyte and formed a two-sited immuno-complex. Illumination of the complex released singlet oxygen atoms from the donor beads, which were channeled into the acceptor beads and triggered chemiluminescence which was measured in an Envision plate reader. The amount of light was proportional to the concentration of the compound.
Plasma concentration-time profiles were analyzed using Phoenix WinNonLin ver. 6.2, Pharsight Inc., Mountain View, Calif., USA), and the half-life (T1/2) calculated using individual plasma concentration-time profiles from each animal.

[4] = In vitro potency (CRE luciferase) EC50 (0% HSA), 0% HSA
[5] = In vitro potency (CRE luciferase) EC50 (1% HSA), 1% HSA

T1 sequence (P43220 24-463): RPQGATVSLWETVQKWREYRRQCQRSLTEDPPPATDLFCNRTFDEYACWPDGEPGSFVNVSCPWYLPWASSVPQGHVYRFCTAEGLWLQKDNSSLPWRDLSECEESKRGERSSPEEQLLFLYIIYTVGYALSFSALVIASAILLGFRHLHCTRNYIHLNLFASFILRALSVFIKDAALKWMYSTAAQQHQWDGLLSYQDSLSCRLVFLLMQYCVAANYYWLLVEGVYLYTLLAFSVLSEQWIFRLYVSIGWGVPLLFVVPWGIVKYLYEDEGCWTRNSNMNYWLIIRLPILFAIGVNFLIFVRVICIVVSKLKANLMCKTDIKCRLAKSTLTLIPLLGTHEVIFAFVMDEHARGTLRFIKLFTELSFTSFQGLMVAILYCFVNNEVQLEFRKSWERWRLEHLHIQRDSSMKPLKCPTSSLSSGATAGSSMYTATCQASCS

Compound `CC[C@H](C)[C@H](NC(=O)[C@H](Cc1ccccc1)NC(=O)[C@H](CCC(=O)O)NC(=O)[C@H](CCCCNC(=O)[C@@H](N)CCCCNC(=O)CC[C@H](NC(=O)CC[C@H](NC(=O)CC[C@H](NC(=O)CCCCCCCCCCCOc1ccc(C(=O)O)cc1)C(=O)O)C(=O)O)C(=O)O)NC(=O)[C@H](C)NC(=O)[C@H](C)NC(=O)[C@H](CCC(N)=O)NC(=O)CNC(=O)[C@H](CCC(=O)O)NC(=O)[C@H](CC(C)C)NC(=O)[C@H](Cc1ccc(O)cc1)NC(=O)[C@H](CO)NC(=O)[C@H](CO)NC(=O)[C@@H](NC(=O)[C@H](CC(=O)O)NC(=O)[C@H](CO)NC(=O)[C@@H](NC(=O)[C@H](Cc1ccccc1)NC(=O)[C@@H](NC(=O)CNC(=O)[C@H](CCC(=O)O)NC(=O)C(C)(C)NC(=O)[C@@H](N)Cc1c[nH]cn1)[C@@H](C)O)[C@@H](C)O)C(C)C)C(=O)N[C@@H](C)C(=O)N[C@@H](Cc1c[nH]c2ccccc12)C(=O)N[C@@H](CC(C)C)C(=O)N[C@H](C(=O)N[C@@H](CCCNC(=N)N)C(=O)NCC(=O)N[C@@H](CCCNC(=N)N)C(=O)N[C@@H](CCCCNC(=O)[C@@H](N)CCCCNC(=O)CC[C@H](NC(=O)CC[C@H](NC(=O)CC[C@H](NC(=O)CCCCCCCCCCCOc1ccc(C(=O)O)cc1)C(=O)O)C(=O)O)C(=O)O)C(=O)O)C(C)C` [Example 17, N^ε26-[(2S)-2-amino-6-[[(4S)-4-carboxy-4-[[(4S)-4-carboxy-4-[[(4S)-4-carboxy-4-[12-(4-carboxyphenoxy)dodecanoylamino]butanoyl]amino]butanoyl]amino]butanoyl]amino]hexanoyl], N^ε37-[(2S)-2-amino-6-[[(4S)-4-carboxy-4-[[(4S)-4-carboxy-4-[[(4S)-4-carboxy-4-[12-(4-carboxyphenoxy)dodecanoylamino]butanoyl]amino]butanoyl]amino]butanoyl]amino]hexanoyl]-[Aib^8,Arg^34,Lys^37]-GLP-1-(7-37)-peptide] has an EC50 [1, 4] of 0.0033 nM, a half-life [2] of 71 h and a half-life [3] of 24 h.

With `CC[C@H](C)[C@H](NC(=O)[C@H](Cc1ccccc1)NC(=O)[C@H](CCC(=O)O)NC(=O)[C@H](CCCCNC(=O)[C@@H](N)CCCCNC(=O)[C@@H](N)CCCCNC(=O)CC[C@H](NC(=O)CCCCCCCCCCOc1ccc(C(=O)O)cc1)C(=O)O)NC(=O)[C@H](C)NC(=O)[C@H](C)NC(=O)[C@H](CCC(N)=O)NC(=O)CNC(=O)[C@H](CCC(=O)O)NC(=O)[C@H](CC(C)C)NC(=O)[C@H](Cc1ccc(O)cc1)NC(=O)[C@H](CO)NC(=O)[C@H](CO)NC(=O)[C@@H](NC(=O)[C@H](CC(=O)O)NC(=O)[C@H](CO)NC(=O)[C@@H](NC(=O)[C@H](Cc1ccccc1)NC(=O)[C@@H](NC(=O)CNC(=O)[C@H](CCC(=O)O)NC(=O)C(C)(C)NC(=O)[C@@H](N)Cc1c[nH]cn1)[C@@H](C)O)[C@@H](C)O)C(C)C)C(=O)N[C@@H](C)C(=O)N[C@@H](Cc1c[nH]c2ccccc12)C(=O)N[C@@H](CC(C)C)C(=O)N[C@H](C(=O)N[C@@H](CCCNC(=N)N)C(=O)NCC(=O)N[C@@H](CCCNC(=N)N)C(=O)N[C@@H](CCCCNC(=O)[C@@H](N)CCCCNC(=O)[C@@H](N)CCCCNC(=O)CC[C@H](NC(=O)CCCCCCCCCCOc1ccc(C(=O)O)cc1)C(=O)O)C(=O)O)C(C)C` [Example 20, N^ε26-[(2S)-2-amino-6-[[(2S)-2-amino-6-[[(4S)-4-carboxy-4-[11-(4-carboxyphenoxy)undecanoylamino]butanoyl]amino]hexanoyl]amino]hexanoyl], N^ε37-[(2S)-2-amino-6-[[(2S)-2-amino-6-[[(4S)-4-carboxy-4-[11-(4-carboxyphenoxy)undecanoylamino]butanoyl]amino]hexanoyl]amino]hexanoyl]-[Aib^8,Arg^34,Lys^37]-GLP-1-(7-37)-peptide] the EC50 [1, 4] was 0.0049 nM, the EC50 [1, 5] was 0.063 nM and the “EC50/pM (ratio 1% HSA/0% HSA)” value [1] was 13. The half-life [2] was 59 h and the half-life [3] was 14 h.

For `CC[C@H](C)[C@H](NC(=O)[C@H](Cc1ccccc1)NC(=O)[C@H](CCC(=O)O)NC(=O)[C@H](CCCCNC(=O)[C@@H](N)CCCCNC(=O)COCCOCCNC(=O)COCCOCCNC(=O)CC[C@H](NC(=O)CCCCCCCCCOc1ccc(C(=O)O)cc1)C(=O)O)NC(=O)[C@H](C)NC(=O)[C@H](C)NC(=O)[C@H](CCC(N)=O)NC(=O)[C@H](CCC(=O)O)NC(=O)[C@H](CCC(=O)O)NC(=O)[C@H](CC(C)C)NC(=O)[C@H](Cc1ccc(O)cc1)NC(=O)[C@H](CO)NC(=O)[C@H](CO)NC(=O)[C@@H](NC(=O)[C@H](CC(=O)O)NC(=O)[C@H](CO)NC(=O)[C@@H](NC(=O)[C@H](Cc1ccccc1)NC(=O)[C@@H](NC(=O)CNC(=O)[C@H](CCC(=O)O)NC(=O)C(C)(C)NC(=O)[C@@H](N)Cc1c[nH]cn1)[C@@H](C)O)[C@@H](C)O)C(C)C)C(=O)N[C@@H](C)C(=O)N[C@@H](Cc1c[nH]c2ccccc12)C(=O)N[C@@H](CC(C)C)C(=O)N[C@H](C(=O)N[C@@H](CCC(N)=O)C(=O)NCC(=O)N[C@@H](CCCNC(=N)N)C(=O)N[C@@H](CCCCNC(=O)[C@@H](N)CCCCNC(=O)COCCOCCNC(=O)COCCOCCNC(=O)CC[C@H](NC(=O)CCCCCCCCCOc1ccc(C(=O)O)cc1)C(=O)O)C(=O)O)C(C)C` [Example 18] (H-H[Aib]EGTFTSDVSSYLEEQAAK([εLys-AEEA-AEEA-γGlu-Decanoyl(10-(4-HOOC-PhO))])EFIAWLVQGRK([εLys-AEEA-AEEA-γGlu-Decanoyl(10-(4-HOOC-PhO))])-OH; N-terminus and C-terminus assumed), the EC50 [1, 4] was 0.012 nM, the EC50 [1, 5] was 0.079 nM and the “EC50/pM (ratio 1% HSA/0% HSA)” value [1] was 6.9. The half-life [2] was 47 h and the half-life [3] was 20 h.

In the case of `CC[C@H](C)[C@H](NC(=O)[C@H](Cc1ccccc1)NC(=O)[C@H](CCC(=O)O)NC(=O)[C@H](CCCCNC(=O)[C@@H](N)CCCCNC(=O)COCCOCCNC(=O)COCCOCCNC(=O)CC[C@H](NC(=O)CCCCCCCCCCCOc1ccc(C(=O)O)cc1)C(=O)O)NC(=O)[C@H](C)NC(=O)[C@H](C)NC(=O)[C@H](CCC(N)=O)NC(=O)CNC(=O)[C@H](CCC(=O)O)NC(=O)[C@H](CC(C)C)NC(=O)[C@H](Cc1ccc(O)cc1)NC(=O)[C@H](CO)NC(=O)[C@H](CO)NC(=O)[C@@H](NC(=O)[C@H](CC(=O)O)NC(=O)[C@H](CO)NC(=O)[C@@H](NC(=O)[C@H](Cc1ccccc1)NC(=O)[C@@H](NC(=O)CNC(=O)[C@H](CCC(=O)O)NC(=O)C(C)(C)NC(=O)[C@@H](N)Cc1c[nH]cn1)[C@@H](C)O)[C@@H](C)O)C(C)C)C(=O)N[C@@H](C)C(=O)N[C@@H](Cc1c[nH]c2ccccc12)C(=O)N[C@@H](CC(C)C)C(=O)N[C@H](C(=O)N[C@@H](CCCNC(=N)N)C(=O)NCC(=O)N[C@@H](CCCNC(=N)N)C(=O)N[C@@H](CCCCNC(=O)[C@@H](N)CCCCNC(=O)COCCOCCNC(=O)COCCOCCNC(=O)CC[C@H](NC(=O)CCCCCCCCCCCOc1ccc(C(=O)O)cc1)C(=O)O)C(=O)O)C(C)C` [Example 14, N^ε26-[(2S)-2-amino-6-[[2-[2-[2-[[2-[2-[2-[[(4S)-4-carboxy-4-[12-(4-carboxyphenoxy)dodecanoylamino]butanoyl]amino]ethoxy]ethoxy]acetyl]amino]ethoxy]ethoxy]acetyl]amino]hexanoyl], N^ε37-[(2S)-2-amino-6-[[2-[2-[2-[[2-[2-[2-[[(4S)-4-carboxy-4-[12-(4-carboxyphenoxy)dodecanoylamino]butanoyl]amino]ethoxy]ethoxy]acetyl]amino]ethoxy]ethoxy]acetyl]amino]hexanoyl]-[Aib^8,Arg^34, Lys^37]-GLP-1-(7-37)-peptide], the EC50 [1, 4] is reported as 0.0048 nM, the EC50 [1, 5] is reported as 0.076 nM and the “EC50/pM (ratio 1% HSA/0% HSA)” value [1] is reported as 16. For the same compound, the half-life [2] was 88 h and the half-life [3] was 19 h.

`CC[C@H](C)[C@H](NC(=O)[C@H](Cc1ccccc1)NC(=O)[C@H](CCC(=O)O)NC(=O)[C@H](CCCCNC(=O)[C@@H](N)CCCCNC(=O)[C@@H](N)CCCCNC(=O)CC[C@H](NC(=O)CCCCCCCCCOc1ccc(C(=O)O)cc1)C(=O)O)NC(=O)[C@H](C)NC(=O)[C@H](C)NC(=O)[C@H](CCC(N)=O)NC(=O)CNC(=O)[C@H](CCC(=O)O)NC(=O)[C@H](CC(C)C)NC(=O)[C@H](Cc1ccc(O)cc1)NC(=O)[C@H](CO)NC(=O)[C@H](CO)NC(=O)[C@@H](NC(=O)[C@H](CC(=O)O)NC(=O)[C@H](CO)NC(=O)[C@@H](NC(=O)[C@H](Cc1ccccc1)NC(=O)[C@@H](NC(=O)CNC(=O)[C@H](CCC(=O)O)NC(=O)C(C)(C)NC(=O)[C@@H](N)Cc1c[nH]cn1)[C@@H](C)O)[C@@H](C)O)C(C)C)C(=O)N[C@@H](C)C(=O)N[C@@H](Cc1c[nH]c2ccccc12)C(=O)N[C@@H](CC(C)C)C(=O)N[C@H](C(=O)N[C@@H](CCCNC(=N)N)C(=O)NCC(=O)N[C@@H](CCCNC(=N)N)C(=O)N[C@@H](CCCCNC(=O)[C@@H](N)CCCCNC(=O)[C@@H](N)CCCCNC(=O)CC[C@H](NC(=O)CCCCCCCCCOc1ccc(C(=O)O)cc1)C(=O)O)C(=O)O)C(C)C` [Example 1, N^ε26-[(2S)-2-amino-6-[[(2S)-2-amino-6-[[(4S)-4-carboxy-4-[10-(4-carboxyphenoxy)decanoylamino]butanoyl]amino]hexanoyl]amino]hexanoyl], N^ε37-[(2S)-2-amino-6-[[(2S)-2-amino-6-[[(4S)-4-carboxy-4-[10-(4-carboxyphenoxy)decanoylamino]butanoyl]amino]hexanoyl]amino]hexanoyl]-[Aib^8, Arg^34,Lys^37]-GLP-1-(7-37)-peptide] gave an EC50 [1, 4] of 0.004 nM, an EC50 [1, 5] of 0.057 nM and a half-life [3] of 14 h.
